Some results are limits rather than exact numbers.

A short description of data set [1]: In vitro glucose sensing at different glucose concentration (UPLC-MS, formation of linker-glucose). To be noted: 0.42 mM linker, PBS pH 7.4, 37° C. The class given is physicochemical. The protocol:
The aim with the example is to evaluate the reaction rate of three different linkers at various glucose concentrations i.e. their ability to hydrolyse and react with glucose to form a linker glucose conjugate.
1.4 mg of linker 1 ((E)-N′-(3-(benzyloxy)propylidene)-4-methoxybenzohydrazide) was dissolved in 100 μL DMSO. 10 μL of the DMSO stock solution was added to 990 μL 1×PBS buffer pH 7.4, containing 1000 or 5000 equiv glucose, to give a final concentration of 0.42 mM of linker 1. The solutions were heated to 37° C. and analysed at different time points from 0 to 48 h by UPLC-MS (C18 column, acetonitrile/water/formic acid). The linker-glucose compound was analysed as percentage of the full conversion of the reaction.
1.3 mg and 1.4 mg of linker 14 ((E)-N′-(2-(benzyloxy)ethylidene)-4-methoxybenzohydrazide) and linker 15 ((E)-N′-(2-(benzyloxy)ethylidene)-2-hydroxy-4-methoxybenzohydrazide), respectively, was dissolved in 100 μL DMSO. 10 μL of each stock solution was added to 990 μL 1×PBS buffer pH 7.4 containing 1000, 5000 or 10,000 equiv glucose, to give a final linker concentration of 0.42 mM. The solutions were heated to 37° C. and analysed at different time points from 0 to 72 h by UPLC-MS (C18 column, acetonitrile/water/formic acid). The linker-glucose compounds were analysed as percentage of the full conversion of the reaction.

The nature of data set [2]: In vitro glucose sensing evaluation (LC-MS): reactivity of each linker towards glucose. The class given is physicochemical. Conditions: phosphate buffer pH 7, 1000 equiv glucose, 37° C. The protocol:
The aim with this example is to evaluate the reactivity of each linker towards glucose.
1-1.5 mg of linker was dissolved in 100 μL DMSO. Immediately after solvation, 5 μL was added to 995 μL phosphate buffer pH 7 containing 1000 equiv glucose. The mixture was heated to 37° C. and analysed continuously by LC-MS

For another data set, the system named is lean rats. Put plainly: In vivo scITT in lean rats. Conditions: s.c., 5 U insulin-C18 or 0.5 U human insulin.

On to `COc1ccc(C(=O)N/N=C/CCOCc2ccccc2)cc1` [Linker 1, (E)-N′-(3-(benzyloxy)propylidene)-4-methoxybenzohydrazide], for which the “% linker-glucose” value is reported as 0% in data set [1] (1000 equiv glucose, 0 h); 3% in data set [1] (1000 equiv glucose, 1.5 h); 3% in data set [1] (1000 equiv glucose, 2 h); 5% in data set [1] (1000 equiv glucose, 3 h); 4% in data set [1] (1000 equiv glucose, 3.17 h); 4% in data set [1] (1000 equiv glucose, 3.5 h). The “% linker-glucose” value in data set [1] (1000 equiv glucose, 3.75 h) is reported as 4%; in data set [1] (1000 equiv glucose, 4 h), 5%; in data set [1] (1000 equiv glucose, 4.5 h), 6%; in data set [1] (1000 equiv glucose, 4.75 h), 6%; in data set [1] (1000 equiv glucose, 5 h), 6%; in data set [1] (1000 equiv glucose, 5.5 h), 6%. The “% linker-glucose” value in data set [1] (1000 equiv glucose, 6 h) worked out at 9%; in data set [1] (1000 equiv glucose, 7 h), 9%; in data set [1] (1000 equiv glucose, 24 h) it was 29%; in data set [1] (1000 equiv glucose, 48 h) it was 70%; in data set [1] (5000 equiv glucose, 0 h), 0%; in data set [1] (5000 equiv glucose, 0.75 h), 3%. For the same molecule, the “% linker-glucose” value in data set [1] (5000 equiv glucose, 1 h) is given as 6%; in data set [1] (5000 equiv glucose, 1.25 h), 7%; in data set [1] (5000 equiv glucose, 1.5 h) it was 10%; in data set [1] (5000 equiv glucose, 1.75 h), 10%; in data set [1] (5000 equiv glucose, 2 h), 14%; in data set [1] (5000 equiv glucose, 2.5 h), 18%. Also, in data set [1] (5000 equiv glucose, 7 h), the “% linker-glucose” value came out at 49%.

In the case of `COc1ccc(C(=O)N/N=C/COCc2ccccc2)cc1` [Linker 14, (E)-N′-(2-(benzyloxy)ethylidene)-4-methoxybenzohydrazide], the “% linker-glucose” value in data set [1] (1000 equiv glucose, 0 h) came out at 0%; in data set [1] (1000 equiv glucose, 24 h), 7%; in data set [1] (1000 equiv glucose, 54 h) it was 11%; in data set [1] (1000 equiv glucose, 72 h), 17%; in data set [1] (5000 equiv glucose, 0 h), 0%; in data set [1] (5000 equiv glucose, 24 h) it was 16%. Further, the “% linker-glucose” value in data set [1] (5000 equiv glucose, 54 h) is listed as 30%; in data set [1] (5000 equiv glucose, 72 h) it was 50%; in data set [1] (10,000 equiv glucose, 0 h) it was 0%; in data set [1] (10,000 equiv glucose, 6 h), 3%; in data set [1] (10,000 equiv glucose, 24 h) it was 39%; in data set [1] (10,000 equiv glucose, 54 h) it was 62%. The “% linker-glucose” value in data set [1] (10,000 equiv glucose, 72 h) is recorded as 87%.

As to `COc1ccc(C(=O)N/N=C/COCc2ccccc2)c(O)c1` [Linker 15, (E)-N′-(2-(benzyloxy)ethylidene)-2-hydroxy-4-methoxybenzohydrazide], the “% linker-glucose” value in data set [1] (1000 equiv glucose, 0 h) came to 0%; in data set [1] (1000 equiv glucose, 2 h), 1%; in data set [1] (1000 equiv glucose, 4 h), 3%; in data set [1] (1000 equiv glucose, 6 h), 5%; in data set [1] (1000 equiv glucose, 24 h), 21%; in data set [1] (1000 equiv glucose, 48 h), 35%. Besides, the “% linker-glucose” value worked out at 0% in data set [1] (5000 equiv glucose, 0 h); 2% in data set [1] (5000 equiv glucose, 1 h); 6% in data set [1] (5000 equiv glucose, 2 h); 12% in data set [1] (5000 equiv glucose, 4 h); 21% in data set [1] (5000 equiv glucose, 6 h); 68% in data set [1] (5000 equiv glucose, 24 h). For the same molecule, the “% linker-glucose” value came out at 98% in data set [1] (5000 equiv glucose, 48 h); 0% in data set [1] (10,000 equiv glucose, 0 h); 9% in data set [1] (10,000 equiv glucose, 1 h); 15% in data set [1] (10,000 equiv glucose, 2 h); 33% in data set [1] (10,000 equiv glucose, 4 h); 44% in data set [1] (10,000 equiv glucose, 6 h). Further, the “% linker-glucose” value in data set [1] (10,000 equiv glucose, 24 h) was 89%; in data set [1] (10,000 equiv glucose, 48 h) it was 99%. In data set [2], the “Linker-glucose observed” value is no more than 5 h.

Consider “Human insulin: human insulin, the unmodified peptide hormone used as comparator”, for which the “Blood glucose % of vehicle (±SEM)” value in the data set with lean rats (0 min (before)) turned out to be 95 ± 3%; in the data set on lean rats (60 min), 64 ± 4%; in the data set on lean rats (120 min), 55 ± 6%; in the data set on lean rats (180 min) it was 66 ± 7%; in the data set with lean rats (240 min), 76 ± 4%; in the data set with lean rats (300 min) it was 76 ± 4%.

Source of the values: patent US20190336610A1, “GLUCOSE-SENSITIVE PEPTIDE HORMONES” (GUBRA APS, priority 2016, published 2019).
